Measured values as given in article PMC4303209, “A novel phosphatidylinositol 3-kinase (PI3K) inhibitor directs a potent FOXO-dependent, p53-independent cell cycle arrest phenotype characterized by the differential induction of a subset of FOXO-regulated genes” (Breast Cancer Research : BCR, 2014).

Test system: MCF-7 breast cancer cells
Assay: Microarray gene expression analysis (Agilent whole human genome 4 x 44K; compound vs DMSO, LIMMA log2 fold change)
Type: cell-based
Conditions: Apoptosis genes

Oc1cccc(-c2nc(N3CCOCC3)c3oc4ncccc4c3n2)c1 [PI-103]
HSPD1 log2FC (Gene 3329): -0.080
HSPE1 log2FC (Gene 3336): -0.309
HTR2B log2FC (Gene 3357): -0.397
IAPP log2FC (Gene 3375): -0.066
ID1 log2FC (Gene 3397): 0.070
ID3 log2FC (Gene 3399): -0.082
IFI16 log2FC (Gene 3428): 0.334
IFI27 log2FC (Gene 3429): -0.196
IFIT2 log2FC (Gene 3433): 1.643
IFIT3 log2FC (Gene 3437): 0.140
IFNG log2FC (Gene 3458): -0.040
IGBP1 log2FC (Gene 3476): 0.178
IGF1 log2FC (Gene 3479): 0.051
IGF1R log2FC (Gene 3480): 0.084
IGF2R log2FC (Gene 3482): 0.351
IGFBP3 log2FC (Gene 3486): 0.086
IKBKB log2FC (Gene 3551): 0.122
IL1B log2FC (Gene 3553): 0.035
IL1RN log2FC (Gene 3557): -0.235
IL2 log2FC (Gene 3558): -0.008
IL4 log2FC (Gene 3565): -0.010
IL6 log2FC (Gene 3569): 0.006
IL6R log2FC (Gene 3570): 0.551
IL6ST log2FC (Gene 3572): 0.257
IL7 log2FC (Gene 3574): 0.210
IL10 log2FC (Gene 3586): -0.050
TNFRSF9 log2FC (Gene 3604): -0.328
ING2 log2FC (Gene 3622): 0.264
INHBA log2FC (Gene 3624): -0.687
INHBB log2FC (Gene 3625): -0.799
INS log2FC (Gene 3630): -0.043
INPP5D log2FC (Gene 3635): -0.048
INSL3 log2FC (Gene 3640): -0.069
IRAK1 log2FC (Gene 3654): -0.233
IRF1 log2FC (Gene 3659): -0.382
IRF3 log2FC (Gene 3661): -0.472
IRF5 log2FC (Gene 3663): 1.340
IRF7 log2FC (Gene 3665): 0.353
ITGA1 log2FC (Gene 3672): 0.190
ITGA5 log2FC (Gene 3678): -0.454
ITGAV log2FC (Gene 3685): 0.599
ITGB1 log2FC (Gene 3688): 0.583
ITPR1 log2FC (Gene 3708): 0.249
JAG2 log2FC (Gene 3714): 0.522
JAK2 log2FC (Gene 3717): 0.369
JAK3 log2FC (Gene 3718): -0.043
JUN log2FC (Gene 3725): -0.937
KCNMA1 log2FC (Gene 3778): 0.170
KNG1 log2FC (Gene 3827): -0.057
KPNA1 log2FC (Gene 3836): -0.280
KPNB1 log2FC (Gene 3837): 0.240
KRT8 log2FC (Gene 3856): -0.277
KRT18 log2FC (Gene 3875): -0.442
LCK log2FC (Gene 3932): -0.114
LEP log2FC (Gene 3952): -0.051
LGALS7 log2FC (Gene 3963): -0.229
LIG4 log2FC (Gene 3981): 0.035
LMNA log2FC (Gene 4000): -0.013
LMNB1 log2FC (Gene 4001): -0.018
LRP6 log2FC (Gene 4040): -0.118
LTBR log2FC (Gene 4055): -0.111
LTK log2FC (Gene 4058): -0.062
LYN log2FC (Gene 4067): -0.359
SMAD3 log2FC (Gene 4088): 0.243
SMAD6 log2FC (Gene 4091): 0.083
MAL log2FC (Gene 4118): -0.429
MAX log2FC (Gene 4149): -0.351
MCF2 log2FC (Gene 4168): 0.031
MCL1 log2FC (Gene 4170): -1.349
MDK log2FC (Gene 4192): 0.235
MDM2 log2FC (Gene 4193): -0.113
MECP2 log2FC (Gene 4204): -0.128
MEF2A log2FC (Gene 4205): -0.174
MEF2C log2FC (Gene 4208): 0.238
MEF2D log2FC (Gene 4209): -0.520
MAP3K5 log2FC (Gene 4217): -0.660
MEN1 log2FC (Gene 4221): 0.029
KITLG log2FC (Gene 4254): -0.218
MGMT log2FC (Gene 4255): -0.055
MIF log2FC (Gene 4282): 0.230
MLH1 log2FC (Gene 4292): 0.343
MAP3K9 log2FC (Gene 4293): -0.693
MAP3K10 log2FC (Gene 4294): 0.639
MAP3K11 log2FC (Gene 4296): -0.577
MMP9 log2FC (Gene 4318): -0.279
MNAT1 log2FC (Gene 4331): 0.589
MNT log2FC (Gene 4335): 1.538
MPO log2FC (Gene 4353): -0.006
CITED1 log2FC (Gene 4435): -0.101
MSH2 log2FC (Gene 4436): 0.786
MSX1 log2FC (Gene 4487): -0.243
MUC1 log2FC (Gene 4582): -0.282
MUC2 log2FC (Gene 4583): -0.081
MUC5AC log2FC (Gene 4586): -0.288
MUSK log2FC (Gene 4593): -0.262
MX1 log2FC (Gene 4599): 0.148
MYC log2FC (Gene 4609): 0.421
MYD88 log2FC (Gene 4615): -0.601
GADD45B log2FC (Gene 4616): 0.857
NBN log2FC (Gene 4683): 0.619
NDUFS1 log2FC (Gene 4719): 0.294
NF1 log2FC (Gene 4763): 0.451
NFATC4 log2FC (Gene 4776): 0.296
NFE2L2 log2FC (Gene 4780): 0.540
NFKB1 log2FC (Gene 4790): -0.256
NFKBIA log2FC (Gene 4792): -0.656
NGFR log2FC (Gene 4804): -0.069
NKX3-1 log2FC (Gene 4824): -0.386
NME1 log2FC (Gene 4830): 0.199
NME2 log2FC (Gene 4831): 0.205
NME3 log2FC (Gene 4832): -0.013
NMT1 log2FC (Gene 4836): -0.214
NODAL log2FC (Gene 4838): -0.025
NOS3 log2FC (Gene 4846): -0.168
NOTCH2 log2FC (Gene 4853): 0.274
NPM1 log2FC (Gene 4869): 0.282
NPTX1 log2FC (Gene 4884): -0.756
NPY5R log2FC (Gene 4889): -0.042
SLC11A2 log2FC (Gene 4891): 0.320
NRAS log2FC (Gene 4893): -0.535
NTF3 log2FC (Gene 4908): -1.099
NTRK2 log2FC (Gene 4915): -0.265
NR4A2 log2FC (Gene 4929): 0.442
OCLN log2FC (Gene 4950): 0.409
OPA1 log2FC (Gene 4976): 0.350
TNFRSF11B log2FC (Gene 4982): 0.966
OSM log2FC (Gene 5008): -0.008
P2RX1 log2FC (Gene 5023): -0.016
P2RX4 log2FC (Gene 5025): 0.348
P2RX7 log2FC (Gene 5027): -0.319
SERPINB2 log2FC (Gene 5055): -0.093
PAK1 log2FC (Gene 5058): 0.071
PAK2 log2FC (Gene 5062): -0.103
PARK2 log2FC (Gene 5071): -0.149
PAWR log2FC (Gene 5074): 0.876
PAX3 log2FC (Gene 5077): -0.114
PAX4 log2FC (Gene 5078): -0.073
PAX7 log2FC (Gene 5081): -0.197
PCNT log2FC (Gene 5116): 0.446
PDCD1 log2FC (Gene 5133): -0.284
PDCD2 log2FC (Gene 5134): -0.282
PDE1A log2FC (Gene 5136): -0.171
PDK1 log2FC (Gene 5163): 0.405
PDK2 log2FC (Gene 5164): 1.524
PDK4 log2FC (Gene 5166): 0.866
PDPK1 log2FC (Gene 5170): 0.478
PHB log2FC (Gene 5245): -0.382
SERPINB9 log2FC (Gene 5272): -0.438
SERPINB10 log2FC (Gene 5273): 0.028
PIK3CA log2FC (Gene 5290): 0.818
PIM1 log2FC (Gene 5292): 1.292
PIK3R1 log2FC (Gene 5295): 0.203
PLAGL1 log2FC (Gene 5325): 0.317
PLAGL2 log2FC (Gene 5326): -1.296
PLK1 log2FC (Gene 5347): -0.016
PLSCR1 log2FC (Gene 5359): 0.371
PMAIP1 log2FC (Gene 5366): -1.121
